Experiments:
Rattus norvegicus [1] = experiment: Antiallodynic effect investigated in chronic sciatic nerve constriction injury rats before 1 hr of 60 mg/kg i.p. administration and value reported as paw withdrawal threshold; format: functional; conditions: route intraperitoneal
Rattus norvegicus [2] = experiment: Antiallodynic effect investigated in chronic sciatic nerve constriction injury rats after 1 hr of 60 mg/kg i.p. administration and value reported as paw withdrawal threshold; format: functional; conditions: route intraperitoneal

## CC(C)C[C@@H](CN)CC(=O)OC(C)CCOC(=O)CC1(CN)CCCCC1.Cl.Cl (some centres not stated)
Rattus norvegicus [1]
  PWT: 4 g
Rattus norvegicus [2]
  PWT: 11.4 g

## CC(C)C[C@@H](CN)CC(=O)OCCOC(=O)CC1(CN)CCCCC1.Cl.Cl
Rattus norvegicus [1]
  PWT: 3.33 g
Rattus norvegicus [2]
  PWT: 19 g

## Cl.Cl.NCC1(CC(=O)OCCCCOC(=O)CC2(CN)CCCCC2)CCCCC1
Rattus norvegicus [1]
  PWT: 4 g
Rattus norvegicus [2]
  PWT: 5.6 g

## Cl.Cl.NCC1(CC(=O)OCCCOC(=O)CC2(CN)CCCCC2)CCCCC1
Rattus norvegicus [1]
  PWT: 4.8 g
Rattus norvegicus [2]
  PWT: 19.4 g

## CC(C)C[C@@H](CN)CC(=O)OCCCOC(=O)CC1(CN)CCCCC1.Cl.Cl
Rattus norvegicus [1]
  PWT: 3.6 g
Rattus norvegicus [2]
  PWT: 7.8 g

## CC(C)C[C@H](CN)CC(=O)OCCCCOC(=O)C[C@H](CN)CC(C)C.Cl.Cl
Rattus norvegicus [1]
  PWT: 4.5 g
Rattus norvegicus [2]
  PWT: 8.5 g

## CC(C)C[C@@H](CN)CC(=O)OCCCCOC(=O)CC1(CN)CCCCC1.Cl.Cl
Rattus norvegicus [1]
  PWT: 4.17 g
Rattus norvegicus [2]
  PWT: 8.56 g

## COC(=O)CC1(CN)CCCCC1.Cl
Rattus norvegicus [1]
  PWT: 6.4 g
Rattus norvegicus [2]
  PWT: 22.8 g

## CC(C)C[C@H](CN)CC(=O)OCCCOC(=O)C[C@H](CN)CC(C)C.Cl.Cl
Rattus norvegicus [1]
  PWT: 6 g
Rattus norvegicus [2]
  PWT: 10.33 g

## CC(C)C[C@@H](CN)CC(=O)OCC(C)(C)COC(=O)CC1(CN)CCCCC1.Cl.Cl
Rattus norvegicus [1]
  PWT: 4.4 g
Rattus norvegicus [2]
  PWT: 7.2 g

## CC(C)C[C@H](CN)CC(=O)OCCOC(=O)C[C@H](CN)CC(C)C.Cl.Cl
Rattus norvegicus [1]
  PWT: 2.9 g
Rattus norvegicus [2]
  PWT: 7.9 g

## COC(=O)C[C@@H](CN)CC(C)C.Cl
Rattus norvegicus [1]
  PWT: 5.2 g
Rattus norvegicus [2]
  PWT: 6.8 g

## Cl.Cl.NCC1(CC(=O)OCCOC(=O)CC2(CN)CCCCC2)CCCCC1
Rattus norvegicus [1]
  PWT: 3.4 g
Rattus norvegicus [2]
  PWT: 18.67 g

## COc1ccc(C(CN(C)C)C2(OC(=O)CCC(=O)NC34CC5CC(C)(CC(C)(C5)C3)C4)CCCCC2)cc1.Cl.Cl (configuration not stated)
Rattus norvegicus [1]
  PWT: 3.36 g
Rattus norvegicus [2]
  PWT: 5.6 g

## CC(C)C[C@H](CNC(=O)CCC(=O)NC12CC3CC(C)(CC(C)(C3)C1)C2)CC(=O)O
Rattus norvegicus [1]
  PWT: 3.32 g
Rattus norvegicus [2]
  PWT: 13.2 g

## CC(C)C[C@H](CNC(=O)CCC(=O)NC[C@@H](CC(=O)O)CC(C)C)CC(=O)O
Rattus norvegicus [1]
  PWT: 4 g
Rattus norvegicus [2]
  PWT: 6 g

## CCC(COC(=O)CC1(CN)CCCCC1)OC(=O)C[C@H](CN)CC(C)C.Cl.Cl (stereo in doubt; 2003325)
Rattus norvegicus [1]; 60 mg/kg
  PWT: 4 g
Rattus norvegicus [2]
  PWT: 6.8 g

## CC(C)C[C@@H](CN)CC(=O)OCCCCCOC(=O)CC1(CN)CCCCC1.Cl.Cl (stereo in doubt; 2003327)
Rattus norvegicus [1]; 60 mg/kg
  PWT: 3.33 g
Rattus norvegicus [2]; 60 mg/kg
  PWT: 20.67 g

## CCC(COC(=O)CC1(CN)CCCCC1)OC(=O)C[C@H](CN)CC(C)C.Cl.Cl (stereo in doubt; 2003415)
Rattus norvegicus [1]; 60 mg/kg
  PWT: 4.4 g

## CC(C)C[C@@H](CN)CC(=O)OCCCCCOC(=O)CC1(CN)CCCCC1.Cl.Cl (stereo in doubt; 20030417)
Rattus norvegicus [1]; 60 mg/kg
  PWT: 2.8 g
Rattus norvegicus [2]; 60 mg/kg
  PWT: 13.8 g

## NCC1(CC(=O)O)CCCCC1 [GABAPENTIN]
Rattus norvegicus [1]
  PWT: 2.23 g
Rattus norvegicus [2]
  PWT: 13.5 g

## CC12CC3CC(C)(C1)CC(N)(C3)C2.Cl [MEMANTINE HYDROCHLORIDE]
Rattus norvegicus [1]
  PWT: 2.8 g
Rattus norvegicus [2]
  PWT: 10.4 g

## CC(C)C[C@H](CN)CC(=O)O [PREGABALIN]
Rattus norvegicus [1]
  PWT: 3.43 g
Rattus norvegicus [2]
  PWT: 18.86 g

## COc1ccc(C(CN(C)C)C2(O)CCCCC2)cc1 (configuration not stated) [VENLAFAXINE]
Rattus norvegicus [1]
  PWT: 2 g
Rattus norvegicus [2]
  PWT: 22 g

Source: ChEMBL document CHEMBL1146733, “Effect of gabapentin derivates on mechanical allodynia-like behaviour in a rat model of chronic sciatic constriction injury” (2004)
